The source of these data is patent publication US10851053B2, “Chemical compounds” (GlaxoSmithKline Intellectual Property Development Limited, priority 2016, dated 2020).

Values joined by “and” are separate entries in the source; they are usually repeats but may differ in a detail not shown here. Identical values can stand only once. Counter-ions that a name gives are not always drawn. Where only a bound is given, the exact number is not on record here.

The first experiment relates to ATF4 translation (ATF4 pathway), SH-SY5Y-ATF4-NanoLuc cells. The experiment can be described thus: ATF4 cell based assay (ATF4 5'-UTR NanoLuc luciferase reporter, Thapsigargin induced cellular stress). The conditions noted are these: SH-SY5Y-ATF4-NanoLuc cells challenged with Thapsigargin for 14-18 hours; average of two or more experimental runs; hydrochloride; read-out: average ATF4 pathway inhibitory activity (IC50). The source says: The ATF4 reporter assay measures the effect of Thapsigargin induced cellular stress on ATF4 expression. For this reporter assay, a stable cell line was created by transfecting SH-SY5Y cells with a plasmid containing the NanoLuc® luciferase gene fused to the 5′-UTR of ATF4, under the control of the CMV promoter. The ATF4 5′-UTR contains two open reading frames which mediate the cellular stress-dependent translation of the reporter gene. Clones stably expressing the reporter construct were isolated and selected based on the luminescence response to thapsigargin and inhibition of this signal by test compounds. Briefly, SH-SY5Y-ATF4-NanoLuc cells were challenged with Thapsigargin for 14-18 hours to determine the stress effect with or without test compounds.
Cells were propagated in growth media consisting of 90% DMEM F12 (InVitrogen #11320-033), 10% Fetal Bovine Serum (Gibco #10438-026), 5 mM Glutamax (Gibco #35050-061), 5 mM Hepes, (Gibco #15630-080), and 0.5 mg/ml Geneticin (Gibco #10131-027). Cells were prepared for the assay by removing all media from cells, washing the plated cells with phosphate buffered saline, and detached by adding a solution comprised of 10% Tryple express solution (InVitrogen12604-021) and 90% enzyme-free cell dissociation buffer HANKS base (Gibco 13150-016). The trypsin was deactivated by adding assay media comprised of 90% phenol-red free DMEM F12 (InVitrogen, 11039), 10% Fetal Bovine Serum (Gibco #10438-026), (5 mM Glutamax (Gibco #35050-061), 5 mM Hepes, (Gibco #15630-080), and 0.5 mg/ml Geneticin (Gibco #10131-027). Suspended cells were spun down at 300 g for 5 min, the supernatant was removed and the cell pellet was suspended in warm media (30-37° C.) comprised as above at (1e6 cell/ml).
Assay plates were prepared by adding 250 nL of compound stock solution in 100% DMSO to each well, followed by dispensing 20 microliters/well cell suspension to deliver 15-20 k cell/well. Cells were incubated for 1 hour at 37° C. Then, 5 μL of 1.5 μM or 1 μM of Thapsigargin (final concentration: 200-300 nM) was added to each well of cells. Assay plates containing cells were incubated for 14-18 hours at 37° C.
The measurement of luciferase produced by the ATF4 constructs was measured as follows. Aliquots of the Nano-Glo reagent (Nano-Glo® Luciferase Assay Substrate, Promega, N113, Nano-Glo® Luciferase Assay Buffer, Promega, N112 (parts of Nano-Glo® Luciferase Assay System, N1150) were brought to room temperature, the substrate and buffer were mixed according to manufacturer's instructions. The cell plates were equilibrated to room temperature. 25 microliters/well of the mixed Nano-Glo reagent were dispensed into assay wells and pulse spun to settle contents and the plate was sealed with film. The plates were incubated at room temperature for 1 hour before detecting luminescence on an Envision plate reader.
Compounds of the invention are tested for activity against ATF4 translation in the above assay.
As for `O=C(COc1ccc(Cl)nc1)N[C@H]1[C@@H]2CN(CCCOc3ccc(Cl)cc3)C[C@@H]21` [Example 71, N-((1R,5S,6s)-3-(3-(4-chlorophenoxy)propyl)-3-azabicyclo[3.1.0]hexan-6-yl)-2-((6-chloropyridin-3-yl)oxy)acetamide hydrochloride], the IC50 is 0.137 µM.

The experiment is the same for the next values; noted with them: SH-SY5Y-ATF4-NanoLuc cells challenged with Thapsigargin for 14-18 hours; average of two or more experimental runs; read-out: average ATF4 pathway inhibitory activity (IC50).
Turning to `O=C(COc1ccc(Cl)cc1)NCC1CCN(CCCOc2ccc(Cl)c(F)c2)C1` (centres unmarked) [Example 64, N-((1-(3-(4-chloro-3-fluorophenoxy)propyl)pyrrolidin-3-yl)methyl)-2-(4-chlorophenoxy)acetamide], the IC50 is 0.101 to 1 µM and 0.127 µM.
On the same count and under the same terms, as for `O=C(COc1ccc(Cl)cc1)N[C@H]1[C@@H]2CN(CCCOc3ccc(Cl)nc3)C[C@@H]21` [Example 65, 2-(4-chlorophenoxy)-N-((1R,5S,6s)-3-(3-((6-chloropyridin-3-yl)oxy)propyl)-3-azabicyclo[3.1.0]hexan-6-yl)acetamide], the figure is 0.101 to 1 µM; as for `O=C(COc1ccc(Cl)cc1)NCC1CCN(CCCOc2ccc(Cl)cc2Cl)C1` (centres unmarked) [Example 66, 2-(4-chlorophenoxy)-N-((1-(3-(2,4-dichlorophenoxy)propyl)pyrrolidin-3-yl)methyl)acetamide], 0.101 to 1 µM.
On the same count and under the same terms, to `Cc1cc(Cl)ccc1OCCCN1CCC(CNC(=O)COc2ccc(Cl)cc2)C1` (centres unmarked) [Example 67, N-((1-(3-(4-chloro-2-methylphenoxy)propyl)pyrrolidin-3-yl)methyl)-2-(4-chlorophenoxy)acetamide] belongs 0.101 to 1 µM; to `O=C(COc1ccc(Cl)cc1)NCC1CCN(CCCOc2ccc(Cl)cn2)C1` (centres unmarked) [Example 69, 2-(4-chlorophenoxy)-N-((1-(3-((5-chloropyridin-2-yl)oxy)propyl)pyrrolidin-3-yl)methyl)acetamide], less than 0.1 µM.
Still for that read-out and setting: to `O=C(COc1ccc(Cl)cc1)NC[C@@H]1CCN(CCCOc2ccc(Cl)cc2)C1` [Example 70, (S)-2-(4-chlorophenoxy)-N-((1-(3-(4-chlorophenoxy)propyl)pyrrolidin-3-yl)methyl)acetamide] belongs 0.101 to 1 µM; to `O=C(COc1ccc(Cl)c(C(F)(F)F)c1)NCC1CCN(CCCOc2ccc(Cl)cc2)C1` (centres unmarked) [Example 72, 2-(4-chloro-3-(trifluoromethyl)phenoxy)-N-((1-(3-(4-chlorophenoxy)propyl)pyrrolidin-3-yl)methyl)acetamide], less than 0.1 µM; to `O=C(COc1ccc(Cl)cc1)NC[C@H]1CCN(CCCOc2ccc(Cl)cc2)C1` [Example 73, (R)-2-(4-chlorophenoxy)-N-((1-(3-(4-chlorophenoxy)propyl)pyrrolidin-3-yl)methyl)acetamide], less than 0.1 µM.
`O=C(COc1ccc(Cl)cc1)NCC1CCN(CCCOc2ccc(Cl)cc2)C1=O` (centres unmarked) [Example 75, 2-(4-chlorophenoxy)-N-((1-(3-(4-chlorophenoxy)propyl)-2-oxopyrrolidin-3-yl)methyl)acetamide]: the half-maximal inhibitory concentration (IC50) was 0.101 to 1 µM.
On the same count and under the same terms, to `O=C(COc1ccc(Cl)cc1)N[C@H]1[C@@H]2CN(CC(O)COc3ccc(Cl)cc3)C[C@@H]21` (stereo partly drawn) [Example 76, 2-(4-chlorophenoxy)-N-((1R,5S,6s)-3-(3-(4-chlorophenoxy)-2-hydroxypropyl)-3-azabicyclo[3.1.0]hexan-6-yl)acetamide] belongs less than 0.1 µM.
Take `O=C(COc1ccc(Cl)cc1)NCC1CCN(CC(O)COc2ccc(Cl)cc2)C1` (centres unmarked) [Example 77, 2-(4-chlorophenoxy)-N-((1-(3-(4-chlorophenoxy)-2-hydroxypropyl)pyrrolidin-3-yl)methyl)acetamide]: the half-inhibitory concentration (IC50) was < 0.1 µM and 0.065 µM.
Same read-out and setting: as for `O=C(COc1ccc(Cl)cc1)N[C@H]1[C@@H]2CN(CC(F)COc3ccc(Cl)cc3)C[C@@H]21` (stereo partly drawn) [Example 78, 2-(4-chlorophenoxy)-N-((1R,5S,6s)-3-(3-(4-chlorophenoxy)-2-fluoropropyl)-3-azabicyclo[3.1.0]hexan-6-yl)acetamide], the figure is less than 0.1 µM; as for `CN(Cc1ccc(Cl)cc1)C(=O)N1CCC(CNC(=O)COc2ccc(Cl)cc2)C1` (centres unmarked) [Example 79, N-(4-chlorobenzyl)-3-((2-(4-chlorophenoxy)acetamido)methyl)-N-methylpyrrolidine-1-carboxamide], less than 0.1 µM.
The same measure, in the same setting: to `O=C(COc1ccc(Cl)cc1)NCC1CN(CCCOc2ccc(Cl)cc2)CC1O` (centres unmarked) [Example 80, 2-(4-chlorophenoxy)-N-((1-(3-(4-chlorophenoxy)propyl)-4-hydroxypyrrolidin-3-yl)methyl)acetamide] belongs less than 0.1 µM.
Consider `O=C(COc1ccc(Cl)cc1)NCC1CC(=O)N(CCCOc2ccc(Cl)cc2)C1` (centres unmarked) [Example 81, 2-(4-chlorophenoxy)-N-((1-(3-(4-chlorophenoxy)propyl)-5-oxopyrrolidin-3-yl)methyl)acetamide], for which the IC50 was 0.101 to 1 µM.
On the same count and under the same terms, as for `O=C(COc1ccc(Cl)cc1)NC1[C@H]2CN(C(CCOc3ccc(Cl)cc3)C(=O)O)C[C@@H]12` (stereo partly drawn) [Example 82, 4-(4-chlorophenoxy)-2-((1R,5S)-6-(2-(4-chlorophenoxy)acetamido)-3-azabicyclo[3.1.0]hexan-3-yl)butanoic acid hydrochloride], the figure is less than 0.1 µM.
